According to patent US4816441A, “Peptides and compositions” (priority 1985, dated 1989):

What was measured:
complement system = experiment: Activation of complement: generation of C5a des-Arg in normal human serum (RIA); type: biochemical; conditions: 60 minutes incubation, aliquots at 0, 30, 60 minutes, FIG. 4
Experimental: In order to investigate the influence of the compounds of the invention on the complement system a test was performed in which the generation of the complement split product C5a was used as a measure of the activation of complement.
Aliquots were taken after 0, 30, and 60 minutes and the generated C5a des-Arg was quantitated by a commercial RIA-kit (Upjohn Company, Kalamazoo, MI).

Daudi [1] = experiment: NK-like activity of PBL incubated with SpA peptides or intact SpA, 51Cr release, Daudi targets; type: cell-based, human; conditions: E/T 10:1
Experimental: (§1) K-cell activity is here defined as the increase in cell mediated cytotoxicity of normal peripheral blood leukocytes (PBL) against tumor derived target cells. PBL were isolated by the Boyum method (Scand.J.Clin.Lab.Invest. 22 (1968) 77) by centrifugation of heparinized blood from healthy donors on Ficoll-Hypaque® (Pharmacia, Uppsala, Sweden). In many experiments adherent cells were removed by incubating PBL in sterile glass bottles at 37° C. for 1 to 2 hours.
(§2) The cell lines were kept in culture in RPMI 1640 (Gibco, Paisley, Scotland, Cat. No. 041-1875) to which was added fetal calf serum (10% v/v) (FCS) as well as penicillin (100 IU/ml) and streptomycin (100 μg/ml) at 37° C. and carbon dioxide in air.
(§3) The target cells were labelled with ^51 Cr (New England Nuclear, Dreieich, West Germany).
(§4) The medium used was RPMI 1640 to which was added 10% of FCS, penicillin (100 IU/ml) and streptomycin (100 μg/ml). After incubation, the cell density was adjusted and the cells were distributed in round-bottom microtiter plates (NUNC, Roskilde, Denmark). ^51 Cr-labeled K562 target cells were added to a desired ratio between effector (E) and target (T) cells (E/T 10:1). After a further 4 hours of incubation at 37° C. with 6% CO2 in air, the plates were placed on a Titertek® microtiter plate shaker (Flow Laboratories Ltd., Ayrshire, Scotland). The microtiter plates were centrifuged and known volumes of the supernatant removed by suction and counted ^51 Cr-sample). As maximum value (^51 Cr-max), use was made of the supernatant from K562 incubated with saponin. The spontaneous release of ^51 Cr (^51 Cr-spont) was measured by incubating ^51 Cr-K562 without effector cells.
(§5) Kill %: […]
(§6) The method employed was practically the same as above for Daudi and Raji targets. The only substantial difference was that no preincubation was performed prior to addition of the ^51 Cr-labelled target cells, and the complete incubation of effector and target cells was done in 24 hours. The Kill % was calculated as described above.

[2] = Guinea pig model: anaphylactoid-like reaction after intravenous administration; type: in vivo, guinea pigs of Dunkin-Hartley strain; conditions: anaesthesized artificially ventilated guinea pigs
Experimental: Guinea pigs of Dunkin-Hartley strain (ca. 500 g) were anaesthesized with sodium pentobarbital and were surgically prepared with a catheter in the jugular vein for drug infusion. The blood pressure was registered from a carotid artery. The animals were artificially ventilated by a Harvard small animal respirator at a cycle of 38 insufflations per min. and a volume of 1 ml per 100 g animal.

Raji = experiment: NK-like activity of PBL incubated with SpA peptides or intact SpA, 51Cr release, Raji targets; type: cell-based, human; conditions: E/T 10:1
Experimental: as §1, §2, §3, §4, §5, §6

Daudi [3] = experiment: Long-term test, LAK-like activity, Daudi targets; type: cell-based, human; conditions: 20 μg/ml; E/T 10:1
Experimental: 6×10^6 monocyte-depleted mononuclear cells were incubated in 6 ml RPMI 1640 +5% FCS, penicillin (100 IU/ml) and streptomycin (100 μg/ml) in vertically suspended Falcon flasks (Falcon Plastics, Oxnard, CA., USA, Cat. No. 3013). As in the short-term test, 1.5, 6, 25 or 100 μg peptide per ml, respectively, were added. […] Incubation for 72 h at 37° C., 7% CO2. The cells were counted, density adjusted and the cells incubated together with ^51 Cr-labelled Raji and Daudi target cells. E/T ratios were: 10:1 and 20:1. In the Daudi test the incubation lasted 16 hours, in the Raji test it was 18 hours (round-bottom microtiter plates, as above).

Substance: SpA: protein A from Staphylococcus aureus, purified, from Pharmacia, Uppsala, Sweden
- Activation of complement (C5a des-Arg generation) (complement system): considerable C5a generating capacity
- % kill Daudi (Daudi [1]; 5 μg/ml (12.5 pmol/ml)): 66%
- % kill Daudi (Daudi [1]; 5 μg/ml (125 pmol/ml)): 71%
- % kill Daudi (Daudi [1]; 10 μg/ml (250 pmol/ml)): 77%
- Anaphylactoid-like reaction (bronchoconstriction, hypertension, later hypotension) [2]: produced an anaphylactoid-like reaction
- % kill Raji (Raji; 5 μg/ml (12.5 pmol/ml)): 31%
- % kill Raji (Raji; 5 μg/ml (125 pmol/ml)): 46%
- % kill Raji (Raji; 10 μg/ml (250 pmol/ml)): 46%
- Stimulation index, long-term assay (LAK-like activity), Daudi (Daudi [3]): 1.19
